Each structure is given as a SMILES string.

The assay addresses T1, BRD4 BD2 (Homo sapiens, UniProt O60885, Y97A).
T1 construct: BRD4 (1-477) (Y97A) and (Y390A); made in house; host or cells: E. coli (pET15b vector)
Briefly: BRD4 BD2 TR-FRET competition assay. The assay is classed as binding. The settings on record: BRD4 BD2 TR-FRET; read-out: pIC50 in the BRD4 BD2 assay (converted). On the technique in general: In TR-FRET formats the signal depends on donor and acceptor labels being close together.
In the case of `CNC(=O)c1cc(C(=O)N[C@@H]2CCCC[C@H]2O)cn(Cc2ccccc2)c1=O` (racemic) [Example 185, (+/−)-1-Benzyl-N5-((trans)-2-hydroxycyclohexyl)-N3-methyl-2-oxo-1,2-dihydropyridine-3,5-dicarboxamide], the IC50 is 1 to 100 µM. As for `CNC(=O)c1cc(C(=O)N[C@@H]2CCCC[C@@H]2O)cn(Cc2ccccc2)c1=O` (racemic) [Example 186, (+/−)-1-Benzyl-N5-((cis)-2-hydroxycyclohexyl)-N3-methyl-2-oxo-1,2-dihydropyridine-3,5-dicarboxamide], the IC50 is 1 to 100 µM. Turning to `CNC(=O)c1cc(C(=O)NC[C@H]2CCC[C@@H]2O)cn(Cc2ccccc2)c1=O` (racemic) [Example 196, (+/−)-1-Benzyl-N5-(((1R,2S)-2-hydroxycyclopentyl)methyl)-N3-methyl-2-oxo-1,2-dihydropyridine-3,5-dicarboxamide], the IC50 was 1 to 100 µM. In the case of `CNC(=O)c1cc(C(=O)NC[C@@H]2CC[C@@H](O)C2)cn(Cc2ccccc2)c1=O` (racemic) [Example 198, (+/−)-1-Benzyl-N5-(((trans)-3-hydroxycyclopentyl)methyl) N3-methyl-2-oxo-1,2-dihydropyridine-3,5-dicarboxamide] it was 1 to 100 µM.

`CNC(=O)c1cc(C(=O)NC[C@@H]2CC[C@H](O)C2)cn(Cc2ccccc2)c1=O` (racemic) [Example 199, (+/−)-1-Benzyl-N5-(((cis)-3-hydroxycyclopentyl)methyl)-N3-methyl-2-oxo-1,2-dihydropyridine-3,5-dicarboxamide]: the IC50 was 1 to 100 µM. The value for `CNC(=O)c1cc(C(=O)NC[C@@H]2CCC[C@H](O)C2)cn(Cc2ccccc2)c1=O` (racemic) [Example 206, (+/−)-1-Benzyl-N5-(((1R,3S)-3-hydroxycyclohexyl)methyl)-N3-methyl-2-oxo-1,2-dihydropyridine-3,5-dicarboxamide] was 1 to 100 µM.

As to `CCO[C@H]1C[C@H]1NC(=O)c1cc(C(=O)NC)c(=O)n(Cc2cccc(F)c2)c1` (racemic) [Example 208, (+/−)-N5-((cis)-2-ethoxycyclopropyl)-1-(3-fluorobenzyl)-N3-methyl-2-oxo-1,2-dihydropyridine-3,5-dicarboxamide], the IC50 is 1 to 100 µM.

For `CCO[C@H]1C[C@H]1NC(=O)c1cc(C(=O)NC)c(=O)n(Cc2cccc(C)c2)c1` (racemic) [Example 222, (+/−)-N5-((cis)-2-ethoxycyclopropyl)-N3-methyl-1-(3-methylbenzyl)-2-oxo-1,2-dihydropyridine-3,5-dicarboxamide], the IC50 is 1 to 100 µM. Regarding `CNC(=O)c1cc(C(=O)N[C@@H]2CC[C@H]2OC)cn(Cc2ccccc2)c1=O` (racemic) [Example 243, (+/−)-1-Benzyl-N5-((trans)-2-methoxycyclobutyl)-N3-methyl-2-oxo-1,2-dihydropyridine-3,5-dicarboxamide], the IC50 is 1 to 100 µM. In the case of `CNC(=O)c1cc(C(=O)NC2CC2)cn(CC2CCCc3[nH]cnc32)c1=O` (racemic) [Example 250, (+/−)-N5-Cyclopropyl-N3-methyl-2-oxo-1-((4,5,6,7-tetrahydro-1H-benzo[d]imidazol-4-yl)methyl)-1,2-dihydropyridine-3,5-dicarboxamide] it was 1 to 100 µM. As for `CNC(=O)c1cc(C(=O)N[C@@H]2C[C@H]2CO)cn(C(C)c2cccc(C)c2)c1=O` (mixture of isomers) [Example 267, N5-((trans)-2-(Hydroxymethyl)cyclopropyl)-N3-methyl-2-oxo-1-((S*)-1-(m-tolyl)ethyl)-1,2-dihydropyridine-3,5-dicarboxamide], the IC50 was 1 to 100 µM.

Regarding `CNC(=O)c1cc(C(=O)N[C@@H]2CCC[C@@H](O)C2)cn(Cc2ccccc2)c1=O` (relative stereo) [Example 217, 1-Benzyl-N5-((1R*,3R*)-3-hydroxycyclohexyl)-N3-methyl-2-oxo-1,2-dihydropyridine-3,5-dicarboxamide], the IC50 was 1 to 100 µM. Consider `CNC(=O)c1cc(C(=O)NC2CC2)cn(C(C)c2cccc(C)c2)c1=O` (single isomer, unassigned) [Example 211, (S*)-N5-Cyclopropyl-N3-methyl-2-oxo-1-(1-(m-tolyl)ethyl)-1,2-dihydropyridine-3,5-dicarboxamide], for which the IC50 is 1 to 100 µM.

For the compound `CNC(=O)c1cc(C(=O)NC2CC2)cn(C(C)c2ccccc2C)c1=O` (single isomer, unassigned) [Example 213, (R*)-N5-Cyclopropyl-N3-methyl-2-oxo-1-(1-(o-tolyl)ethyl)-1,2-dihydropyridine-3,5-dicarboxamide], the IC50 was 1 to 100 µM. The value for `CNC(=O)c1cc(C(=O)NC2CC2(C)C)cn(Cc2ccccc2)c1=O` (single isomer, unassigned) [Example 248, (R*)-1-Benzyl-N5-(2,2-dimethylcyclopropyl)-N3-methyl-2-oxo-1,2-dihydropyridine-3,5-dicarboxamide] was 1 to 100 µM; that for `CNC(=O)c1cc(C(=O)NC2CC2)cn(C(CO)c2ccccc2)c1=O` (single isomer, unassigned) [Example 324, (R*)—N^5-Cyclopropyl-1-(2-hydroxy-1-phenylethyl)-N^3-methyl-2-oxo-1,2-dihydropyridine-3,5-dicarboxamide] was 1 to 100 µM; that for `CNC(=O)c1cc(C(=O)NC2CCC2)cn(Cc2cnn(C)c2)c1=O` [Example 163, N5-Cyclobutyl-N3-methyl-1-((1-methyl-1H-pyrazol-4-yl)methyl)-2-oxo-1,2-dihydropyridine-3,5-dicarboxamide] was 1 to 100 µM. In the case of `CNC(=O)c1cc(C(=O)NC2CCC2c2ccccc2)cn(Cc2ccccc2)c1=O` (stereo not drawn) [Example 168, 1-Benzyl-N3-methyl-2-oxo-N5-(2-phenylcyclobutyl)-1,2-dihydropyridine-3,5-dicarboxamide] it was 1 to 100 µM; in that of `CNC(=O)c1cc(C(=O)N[C@H]2C[C@@H](C(=O)O)C2)cn(Cc2ccccc2)c1=O` [Example 169, (cis)-3-(1-Benzyl-5-(methylcarbamoyl)-6-oxo-1,6-dihydropyridine-3-carboxamido)cyclobutane-carboxylic acid], 1 to 100 µM; in that of `CNC(=O)c1cc(C(=O)NC2CCC2)cn([C@@H](C)c2ccccc2)c1=O` [Example 171, (S)-N5-Cyclobutyl-N3-methyl-2-oxo-1-(1-phenylethyl)-1,2-dihydropyridine-3,5-dicarboxamide], 1 to 100 µM. The value for `CNC(=O)c1cc(C(=O)NC2(CC(C)C)CC2)cn(Cc2ccccc2)c1=O` [Example 173, 1-Benzyl-N5-(1-isobutylcyclopropyl)-N3-methyl-2-oxo-1,2-dihydropyridine-3,5-dicarboxamide] was 1 to 100 µM; that for `CCOC1CC(NC(=O)c2cc(C(=O)NC)c(=O)n(Cc3ccccc3)c2)C1OC` (stereo not drawn) [Example 177, 1-Benzyl-N5-(3-ethoxy-2-methoxycyclobutyl)-N3-methyl-2-oxo-1,2-dihydropyridine-3,5-dicarboxamide] was 1 to 100 µM. Regarding `CCCC1(NC(=O)c2cc(C(=O)NC)c(=O)n(Cc3ccccc3)c2)CC1` [Example 178, 1-Benzyl-N3-methyl-2-oxo-N5-(1-propylcyclopropyl)-1,2-dihydropyridine-3,5-dicarboxamide], the IC50 was 1 to 100 µM. In the case of `CNC(=O)c1cc(C(=O)NC2CCC2)cn(Cc2ccc(C(=O)OC)cc2)c1=O` [Example 180, Methyl 4-((5-(cyclobutylcarbamoyl)-3-(methylcarbamoyl)-2-oxopyridin-1(2H)-yl)methyl)benzoate] it was 1 to 100 µM; in that of `CNC(=O)c1cc(C(=O)NC2CC2)cn(CCCc2ccccc2)c1=O` [Example 190, N5-Cyclopropyl-N3-methyl-2-oxo-1-(3-phenylpropyl)-1,2-dihydropyridine-3,5-dicarboxamide], 1 to 100 µM. In the case of `CNC(=O)c1cc(C(=O)NCC2CCCCC2O)cn(Cc2ccccc2)c1=O` (stereo not drawn) [Example 194, 1-Benzyl-N5-((2-hydroxycyclohexyl)methyl)-N3-methyl-2-oxo-1,2-dihydropyridine-3,5-dicarboxamide] it was 1 to 100 µM. The value for `CNC(=O)c1cc(C(=O)NC[C@H]2CC[C@H](O)CC2)cn(Cc2ccccc2)c1=O` [Example 200, 1-Benzyl-N5-(((trans)-4-hydroxycyclohexyl)methyl)-N3-methyl-2-oxo-1,2-dihydropyridine-3,5-dicarboxamide] was 1 to 100 µM; that for `CNC(=O)c1cc(C(=O)NC[C@H]2CC[C@@H](O)CC2)cn(Cc2ccccc2)c1=O` [Example 201, 1-Benzyl-N5-(((cis)-4-hydroxycyclohexyl)methyl)-N3-methyl-2-oxo-1,2-dihydropyridine-3,5-dicarboxamide] was 1 to 100 µM. Consider `CNC(=O)c1cc(C(=O)NC2CC2CO)cn(Cc2cccc(C)c2F)c1=O` (stereo not drawn) [Example 214, 1-(2-Fluoro-3-methylbenzyl)-N5-(2-(hydroxymethyl)cyclopropyl)-N3-methyl-2-oxo-1,2-dihydropyridine-3,5-dicarboxamide], for which the IC50 was 1 to 100 µM. In the case of `CNC(=O)c1cc(C(=O)N[C@@H]2CCC[C@H](O)C2)cn(Cc2ccccc2)c1=O` [Example 219, 1-Benzyl-N5-((1R,3S)-3-hydroxycyclohexyl)-N3-methyl-2-oxo-1,2-dihydropyridine-3,5-dicarboxamide] it was 1 to 100 µM; in that of `CNC(=O)c1cc(C(=O)NC2CC2)cn(CC2COc3ccccc32)c1=O` (stereo not drawn) [Example 268, N5-Cyclopropyl-1-((2,3-dihydrobenzofuran-3-yl)methyl)-N3-methyl-2-oxo-1,2-dihydropyridine-3,5-dicarboxamide], 1 to 100 µM; in that of `CNC(=O)c1cc(C(=O)N[C@H]2C[C@@H]2C)cn(Cc2cc(OC)ccn2)c1=O` [Example 334, 1-((4-Methoxypyridin-2-yl)methyl)-N^3-methyl-N^5-((1S,2S)-2-methylcyclopropyl)-2-oxo-1,2-dihydropyridine-3,5-dicarboxamide], 1 to 100 µM.

For `CNC(=O)c1cc(C(=O)N[C@H]2C[C@@H]2C)cn(Cc2cc(C)ccn2)c1=O` [Example 335, N^3-Methyl-N^5-((1S,2S)-2-methylcyclopropyl)-1-((4-methylpyridin-2-yl)methyl)-2-oxo-1,2-dihydropyridine-3,5-dicarboxamide], the IC50 is 1 to 100 µM.

For the origin of these results see patent US10428026B2, “Pyridinone dicarboxamide for use as bromodomain inhibitors” (GlaxoSmithKline Intellectual Property (No.2) Limited, priority 2015, dated 2019).
